Assays:
[1] = Stability of PAF in stored monocyte conditioned media; assay type: physicochemical; conditions: -80° C., various periods of time; within experimental error
Text: In addition, PAF was extracted from the monocyte supernatants and assayed using the following highly specific and sensitive radioimmunoassay. As the most predominant bioactive forms of PAF secreted by monocytes are the C16 and C18 alkyl moieties (Sugiura and Waku, (1987) Platelet-Activating Factor and Related Lipid Mediators, F. Snyder Ed. Plenum Press, N.Y. 55-85; Prescott et al. (1990) Proc. Natl. Acad. Sci. U.S.A. 81:3534-3538), PAF was quantitated using the highly specific and sensitive ^125 I-RIA kit manufactured by NEN Research Products (Du Pont Canada, Mississauga, Ontario, Canada) following extraction of the monocyte supernatants with 5 mL each of methanol and chloroform and 3.5 mL of water per mL of sample. The recovered chloroform layers, dried under nitrogen, were reconstituted in the PAF assay kit buffer prior to analysis. […] Recoveries of PAF (90±1%, n=>130) were assessed by adding trace amounts of ^3 H-PAF to the sample prior to extraction and determining the % recoveries using a liquid scintillation counter (Model-7000, Beckman Instruments Canada). Iodinated samples were counted on a Beckman Gamma 5500 counter (Beckman Instruments, Fullerton, Calif.). […]

ECs = conditions: stimulation with PAF; D'Humieres et al. (1986); cited from earlier work
endothelial cells (ECs) = experiment: vWf release from ECs exposed directly to PAF or thrombin; conditions: for Increase in vWf release (%), BTP-dioxolane absent: 4 hours
Description: Synthetic PAF (1-O-alkyl-2-acetyl-sn-glyceryl-3-phosphorylcholine; Sigma #P-9525) prepared from bovine heart lecithin (Demopoulos et al. (1979) J. Biol. Chem. 254: 9355-358) was 99% pure by TLC analysis, HPLC analysis indicated this product consisted of 70% C16 and 13% C18 forms of PAF (Mita et al., (1989) Anal. Biochem. 180:131-135). After removal of chloroform, PAF was resuspended in DMEM/F12 culture medium containing 1% Nutridoma-HU (final protein concentration of 40 μM stock solution). After sonication for 3×1 minute periods, the PAF solution was diluted and used immediately.
Media with or without thrombin (@5 units/mL) served as positive and negative controls respectively. ECs were incubated for 1, 10, 20 or 30 minutes and 1, 2, 4, 6 and 24 hours in the PAF and thrombin time course studies. The EC conditioned media were recovered, centrifuged to remove any cell debris, and then frozen at -80° C. for a maximum period of 4 weeks prior to analyses. […] Where appropriate ECs were preincubated with BTP-dioxolane which was not cytotoxic to the cells as determined by the dye exclusion test.
Endothelial cells (ECs) were harvested from human umbilical cord vein as described by Jaffe et al. ((1973) Culture of Human Endothelial Cells Derived from Umbilical Veins: Identification by Morphologic and Immunologic Criteria, J. Clin. Invest. 52:2745-2756) and modified by Hashemi et al. (1990, supra). Endothelial cells were subcultured in 0.2% (w/v) gelatin-coated, 12-well Linbro™ polystyrene, tissue culture plates (Flow Laboratories, Mississauga, Ontario), then plated at a density of 1-2×10^4 /well and grown to confluence.
The standard consisted of a pool of plasma from 20 normal individuals previously determined to contain 1 unit of vWf per mL by the procedure of Zimmerman et al. (1977, J. Clin. Invest. 59:984-989). […] For some experiments, the maximum vWf that could be released was determined. Following incubation, the EC conditioned media were recovered and fresh media containing 0.05% (v/v) Tween 20 and 10 μM each of the protease inhibitors D-phenylalanyl-phenylalanyl-arginyl-chloromethyl ketone, D-phenylalanyl-propyl-arginyl-chloromethyl ketone and 1,5-Dansyl-glutamyl-glycyl-arginyl-chloromethyl ketone were added to the EC monolayers of each corresponding well. The cells were freeze-thawed three times and, to assure complete breakdown of the cell membranes as well as the Weibel-Palade bodies, disrupted in a glass homogenizer using a motor-driven teflon pestle. After centrifugation, total vWf concentration was determined in the supernatants.
In order to examine the responsiveness of ECs to direct PAF exposure, we incubated the monolayers of ECs with 0-300 pico molar (pM) PAF for a period of 4 hours at 37° C. and determined the amount of vWf released into the EC media. […] To determine the time course of PAF effects on vWf release, 300 pM PAF was incubated with monolayers of ECs for 1, 10, 20 and 30 minutes as well as for 1, 2, 4, 6 and 24 hours. […] As a control, the vWf release from thrombin stimulated ECs was also determined (FIG. 5).

Substance: 1-O-alkyl-2-acetyl-sn-glyceryl-3-phosphorylcholine [PAF]
- PAF values in monocyte conditioned media after storage [1]: gave the same values
- PGI2 release from ECs (ECs): release PGI2 in response to stimulation
- vWf release from ECs (maximal) (endothelial cells (ECs); 300 pM PAF, 30 minutes, P<0.05, n=5): 151%
- vWf release as share of the maximal vWf recoverable (endothelial cells (ECs); 300 pM PAF, 30 minutes, […]): ~ 4%
- time course of vWf release from ECs (endothelial cells (ECs); 300 pM PAF, FIG. 5): released vWf at all time points up to 24 hours
- PAF concentration range of greatest vWf release response (endothelial cells (ECs); FIG. 4, 4 hours at 37° C., n=5): 100 to 300 pM
- Increase in vWf release (%), BTP-dioxolane absent (endothelial cells (ECs); PAF 100 pM, n=5): 190.8 ± 46.6%
- Increase in vWf release (%), BTP-dioxolane absent (endothelial cells (ECs); PAF 300 pM, n=5): 204.2 ± 48.7%

— patent US5631246A, “Use of PAF” (The Canadian Red Cross Society, priority 1993, dated 1997)
